Test results as given in patent US7326422B2, “Dissolvable oxides for biological applications” (DelSiTech Oy, priority 1996, dated 2008).
Counter-ions that a name gives are not always drawn.

Key:
[1] = during the first day; crushed silica xerogel particles of 500-700 μm; cited from earlier work
[2] = In vitro dissolution test, USP XXII dissolution apparatus II (paddle method), SBF pH 7.4 with 0.5% sodium dodecyl sulphate, 37° C.; type: physicochemical; details: for Dissolution of toremifene citrate: b: silica xerogel with PEG 4,600; for Release of toremifene citrate: SLOPE: silica xerogel; for release of toremifene citrate: linear, zero-order
Description: Simulated body fluid (SBF, pH 7.4) containing 0.5% […] sodium dodecyl sulphate was used as dissolution medium. SBF was prepared by dissolving reagent grade NaCl (136.8 mM), NaHCO3 (4.2 mM), KCl (3.0 mM), K2HPO4×3H2O (1.0 mM), MgCl2×6H2O (1.5 mM), CaCl2×2H2O […] and Na2SO4 (0.5 mM) in distilled water. They were buffered at pH 7.4 with tris-(hydroxymethyl)aminomethane (50 mM) and hydrochloric acid.
The volume of dissolution medium was 250 ml. Agitation intensity was 50 rpm and temperature was 37° C. […]

[3] = Dissolution of spray dried or crushed gel particles in 250 ml SBF, USP XXII dissolution apparatus II (paddle method); type: physicochemical; details: for toremifene citrate released: after 30 hours; for slope (%/h^1/2): microspheres with 11 w-% toremifene citrate
Description: The solution for spray drying purpose was prepared with a mole ratio of TEOS:H2O:HCl=1.0:14.2:0.003. […] Before spray drying the pH of the sol was adjusted to pH 2.1 with hydrochloric acid. Silica sol was spray dried immediately or after 65 hours aging at room temperature. The spray drying conditions were as described in Example 6. […] About 42 mg of gel particles were placed in 250 ml of simulated body fluid (SBF) at 37° C. and pH 7.4.

## CN[C@H](CC(C)C)C(=O)N[C@H]1C(=O)N[C@@H](CC(N)=O)C(=O)N[C@H]2C(=O)N[C@H]3C(=O)N[C@H](C(=O)N[C@H](C(=O)O)c4cc(O)cc(O)c4-c4cc3ccc4O)[C@H](O)c3ccc(c(Cl)c3)Oc3cc2cc(c3O[C@@H]2O[C@H](CO)[C@@H](O)[C@H](O)[C@H]2O[C@H]2C[C@](C)(N)[C@H](O)[C@H](C)O2)Oc2ccc(cc2Cl)[C@H]1O [vancomycin]
[1]
  incorporated vancomycin released: about 90%

## CN(C)CCOc1ccc(/C(=C(/CCCl)c2ccccc2)c2ccccc2)cc1 [toremifene citrate]
[2]; silica xerogel monolith with PEG 4,600
  release faster from 28 days aged silica xerogels than from unaged: about 30%
[2]; aging 0 days, dried at 11.4 RH-%
  Dissolution of toremifene citrate: b: b = 0.46%/mg %/mg implant/h^1/2
[2]; aging 0 days, dried at 48.4 RH-%
  Dissolution of toremifene citrate: b: b = 0.53 %/mg implant/h^1/2
[2]; aging 0 days, dried at 74.7 RH-%
  Dissolution of toremifene citrate: b: b = 0.46 %/mg implant/h^1/2
[2]; aging 7 days, dried at 11.4 RH-%
  Dissolution of toremifene citrate: b: b = 0.59 %/mg implant/h^1/2
[2]; aging 7 days, dried at 48.4 RH-%
  Dissolution of toremifene citrate: b: b = 0.52 %/mg implant/h^1/2
[2]; aging 7 days, dried at 74.7 RH-%
  Dissolution of toremifene citrate: b: b = 0.06%/mg %/mg implant/h
[2]; aging 28 days, dried at 11.4 RH-%
  Dissolution of toremifene citrate: b: b = 0.67 %/mg implant/h^1/2
[2]; aging 28 days, dried at 48.4 RH-%
  Dissolution of toremifene citrate: b: b = 0.74 %/mg implant/h^1/2
[2]; H2O/TEOS = 6:1, PEG 4600
  Release of toremifene citrate: SLOPE: 0.094%/ %/mg × h
[2]; H2O/TEOS = 6:1, PEG 10000
  Release of toremifene citrate: SLOPE: 0.922%/mg %/mg IMPLANT × h^1/2
[2]; H2O/TEOS = 6:1, without PEG
  Release of toremifene citrate: SLOPE: 0.657%/mg %/mg IMPLANT × h^1/2
[2]; H2O/TEOS = 14:1, PEG 4600
  Release of toremifene citrate: SLOPE: 0.052 %/mg IMPLANT × h
[2]; H2O/TEOS = 14:1, PEG 10000
  Release of toremifene citrate: SLOPE: 0.061 %/mg IMPLANT × h
[2]; H2O/TEOS = 14:1, without PEG
  Release of toremifene citrate: SLOPE: 0.085 %/mg IMPLANT × h
[2]; silica xerogels containing PEG 10 000
  release rate (linear): 0.1 %/mg implant/h
[2]; silica xerogels containing PEG 4600
  release rate (linear): 0.13 %/mg implant/h
[2]; silica-xerogels without polyethylene glycol
  release rate (linear): 0.16 %/mg implant/h
[2]; sintered silica gel (120° C.) containing 11.5 wt-% drug
  release of toremifene citrate: 0.05 %/mg implant/h
[2]; sintered silica gel (120° C.) containing 34.4 wt-% drug
  release of toremifene citrate: 0.11 %/mg implant/h
[2]; spray dried particles (60-200 μm) containing 10.2 w-% toremifene citrate, two months from preparation
  release rate (linear): 0.68 w-% per hour
[3]; microspheres (<50 μm) spray dried at pH 3.8, square root of time kinetics
  toremifene citrate released: 80 w-%
[3]; microspheres from sol aged 65 hours, pH 2
  toremifene citrate released: 63.1 w-%
[3]; microspheres from unaged sol, pH 2
  toremifene citrate released: 75.2 w-%
[3]; crushed silica xerogel granules about 4-50 μm, PEG 4.600
  dissolution rate (square root of time kinetics): 8.1 %/h^1/2
[3]; microspheres aged for 0 h (pH 2)
  cum released toremifene (%) after 30 h: 75.2%
[3]; microspheres aged for 65 h (pH 2)
  cum released toremifene (%) after 30 h: 63.1%
[3]; aged for 0 h (pH 2)
  slope (%/h^1/2): 12.2 %/h^1/2
[3]; aged for 65 h (pH 2)
  slope (%/h^1/2): 9.79 %/h^1/2
[3]; sol aged 65 h vs 0 h, pH 2
  release slower from aged than from unaged microspheres: about 20%
